Reference: patent US5278181A, “Soluble alkyl[5-[amino (phenyl)methyl]-1H-benzimidazol-2-yl] carbamate anthelmintics” (priority 1992, dated 1994)
Values after ≈ are worked out from the molar mass of the structure shown. Values joined by “and” are separate entries in the source; they are usually repeats but may differ in a detail not shown here. Equal entries are not always repeated.

Key:
[1] = Local muscle irritation at injection site in beagle dogs; format: in vivo; details: IM, 12.5-50 mg/kg/day for 2 to 3 days
Excerpt: (§1) All dogs were observed frequently during each day of treatment and daily throughout the remainder of the study for any signs of reactions. In addition, the hair was shaved at the injection sites to facilitate the observation of possible tissue irritation resulting from treatment.

Acanthocheilonema viteae = experiment: Antifilarial dual infection screen in jirds: adult A. viteae burden and microfilaremia; format: in vivo, in Mongolian jirds; details: for % Macrofilarial reduction, A. viteae: day 56
Excerpt: (§2) Dual infections of the filarial worms Brugia pahangi and Acanthocheilonema viteae in jirds are used routinely for antifilarial screening [McCall, J. W., McTier, T. L., and Rowan, S. J., "In vivo models for evaluating potential antifilarial agents", Onchocerciasis/Filariasis (Proceedings of a Symposium sponsored by the World Health Organization), Kalamazoo, Mich., Apr. 8-10, 23-24 (1986)].
(§3) For this dual infection screen, male Mongolian jirds weighing 50-60 g are infected SC with 10 (5 male and 5 female) adult A. viteae, transplanted under sodium pentobarbital anesthesia (48 mg/kg) from donor hamsters infected SC 8 weeks earlier. Two weeks later, 20 (10 male and 10 female) adult B. pahangi, taken from donor jirds infected IP 8 weeks earlier, are transplanted into the peritoneal cavity of each jird under sodium pentobarbital anesthesia. After an additional week, when the jirds have acceptable levels of microfilaremia, they are randomly allocated to treatment groups of 3 animals each and a nontreated group of 4-6 animals. Microfilaremia is determined on days 0 (just prior to the first dose), 4 and 56 post-treatment. Unless indicated otherwise, compounds are suspended in hydroxyethylcellulose (0.5%) - Tween 80 (0.1%) and administered SC at 100 mg/kg/day for 5 consecutive days. All jirds are killed on day 56 post-treatment to determine the effects of drugs on adults of A. viteae and B. pahangi. Live worms are identified as to species, noted as to sex, and counted. The number of dead and/or encapsulated worms is also recorded. A reduction of ≥80% in microfilaremia or ≥50% in adult worm burden (either species) compared with pre-treatment microfilaremia or non-treated control worm burden, respectively, is considered to be significant. For secondary testing with this dual infection screen, groups of 7 animals each are used. For oral dosing, drugs are dissolved or suspended in hydroxyethylcellulose - Tween 80 and administered by gavage.

Brugia pahangi [2] = experiment: Antifilarial effect in beagle dogs infected with Brugia pahangi; format: in vivo
Excerpt: The infective larvae of B. pahangi were produced and collected as described by McCall [J. Georgia Entomol. Soc. 16:283-293, (1981)]. The dogs were given 100 L3 of B. pahangi by subcutaneous injection (SC) into the dorsum of each hind paw or 200 L3 in one hind paw (i.e., a total inoculum of 200 L3 per dog).
The dogs were randomly allocated to treatment groups containing 4 dogs. The dogs were divided by sex and ranked by declining baseline microfilarial counts (average count based on the 5 bleedings made before the day of treatment). Those dogs which were amicrofilaremic or had very few microfilariae were excluded from the trial. Of the remaining dogs, those with the highest baseline microfilaremias were assigned to seven-dog replicates. The sex of the dogs within three of the replicates was the same, while the fourth replicate contained dogs of both sexes. The dogs of a given sex with the highest levels of microfilaremia were placed in the same replicate. The next set of dogs of that sex with the next highest levels of microfilaremia was assigned to the next replicate, and so on until all of the replicates were filled. The dogs within each complete replicate were assigned to test groups using a table of random numbers [Ostle and Mensing, Statistics in Research, Third Edition, Iowa State University Press, Ames, Iowa, pp. 560-563, (1975)]. The test groups were likewise assigned to either control or treatment groups using the table of random numbers.
The first day of treatment, day 0, was approximately 144 days after infection. Drugs were administered orally as a 10% suspension in HEC-Tween 80 or in soft gelatin capsules. Drugs were administered intramuscularly or subcutaneously as a 10% suspension in peanut oil or in HEC-Tween 80. Groups of four dogs served in sham-treated controls in each experiment. All of the treatments were given by IM injection in the dorsal lumbar muscles.
as §1
Blood was collected from each dog on days 51, 43, 27, 19, and 5 before treatment to determine baseline microfilaremias and allocate the dogs to treatment groups. Blood was then collected from all dogs on the day before treatment on day -1, on days 7, 10, 14, 21, 28, 35, 42, 49, and 56 days after treatment. All bleedings were done at approximately the same time of day (11:00-12:00 E.S.T.). Two 20-μl blood films were prepared from each sample and stained with giemsa. Microfilarial counts were made from the 2 blood films.
The dogs were euthanized for necropsy either two or six months after the first day of treatment. Just prior to euthanasia, the dogs were given a subcutaneous injection (SC) of a two percent solution of Evans blue into the dorsum of both hind paws in order to help delineate the lymphatic vessels. This was followed at least 30 minutes later with a lethal dose of Fatal-Plus® (Vortech Pharmaceuticals, Dearborn, Mich.). A limited necropsy was performed on each dog with examination of the afferent and efferent lymphatics of both hindlimbs and the popliteal, inguinal, internal and external iliac, and lumbar lymph nodes. Any live or dead worms seen were removed. These vessels and lymph nodes were removed, teased, and soaked overnight in normal saline to allow any worms to migrate out of the tissues. The condition of the worms, their sex and number, and the location from which they were recovered were noted.
Effectiveness against the adult parasites was determined as follows: [formula] Effectiveness against microfilariae for a given day after treatment was determined as follows: [formula]
The adult B. pahangi counts and the microfilarial counts were compared using a one way analysis of variance (ANOVA). […]

Brugia pahangi [3] = experiment: Antifilarial dual infection screen in jirds: adult B. pahangi burden; format: in vivo, in Mongolian jirds; details: day 56
Excerpt: as §2, §3

B. pahangi and A. viteae = experiment: Antifilarial activity in jirds, dual infection, summary in words; format: in vivo; details: both oral and parenteral routes
Excerpt: as §2
For this dual infection screen, male Mongolian jirds weighing 50-60 g are infected SC with 10 (5 male and 5 female) adult A. viteae, transplanted under sodium pentobarbital anesthesia (48 mg/kg) from donor hamsters infected SC 8 weeks earlier. Two weeks later, 20 (10 male and 10 female) adult B. pahangi, taken from donor jirds infected IP 8 weeks earlier, are transplanted into the peritoneal cavity of each jird under sodium pentobarbital anesthesia. After an additional week, when the jirds have acceptable levels of microfilaremia, they are randomly allocated to treatment groups of 3 animals each and a nontreated group of 4-6 animals. Microfilaremia is determined on days 0 (just prior to the first dose), 4 and 56 post-treatment. […] Live worms are identified as to species, noted as to sex, and counted. The number of dead and/or encapsulated worms is also recorded. […]

Aqueous solubility = details: water
adult worms = details: background art; cited from earlier work
microfilariae = details: background art; cited from earlier work
[4] = IM, 6.25 mg/kg/day × 3, peanut oil
[5] = IM, 12.5 mg/kg/day × 3, peanut oil
[6] = IM, 25 mg/kg/day × 3, peanut oil
[7] = IM, 50 mg/kg/day × 1, peanut oil
[8] = IM, 50 mg/kg/day × 2, peanut oil
[9] = IM, 50 mg/kg/day × 3, peanut oil
[10] = PO, 200 mg/kg/day bid × 3, HEC-Tween 80
[11] = SC, 50 mg/kg/day × 3, HEC-Tween 80

In the case of COC(=O)Nc1nc2cc(C(N)c3ccc(F)cc3)ccc2[nH]1 (racemic) [Example 1, Methyl (±)-[5-[Amino(4-Fluorophenyl)Methyl]-1H-Benzimidazol-2-yl]Carbamate], the local muscle irritation [1] is reported as “no local muscle irritation”, the “% Microfilarial reduction, A. viteae, Day 4” value (Acanthocheilonema viteae; 25 mg/kg/day × 5 days, SC) is reported as 0% and the “% Macrofilarial reduction, A. viteae” value (Acanthocheilonema viteae; 25 mg/kg/day × 5 days, SC) is reported as 88%. For the same molecule, the “Dogs cured/Treated” value (Brugia pahangi [2]; [4]) was 0/4, the “Percent reduction Macrofilariae” value (Brugia pahangi [2]; [4]) was 38% and the “Percent reduction Microfilariae” value (Brugia pahangi [2]; [4]) was 50%. The “Dogs cured/Treated” value (Brugia pahangi [2]; [5]) was 1/4, the “Percent reduction Macrofilariae” value (Brugia pahangi [2]; [5]) was 91% and the “Percent reduction Microfilariae” value (Brugia pahangi [2]; [5]) was 76%. For the same molecule, the “Dogs cured/Treated” value (Brugia pahangi [2]; [6]) was 4/4, the “Percent reduction Macrofilariae” value (Brugia pahangi [2]; [6]) was 100% and the “Percent reduction Microfilariae” value (Brugia pahangi [2]; [6]) was 72%. For the same molecule, the “Dogs cured/Treated” value (Brugia pahangi [2]; [7]) was 0/4, the “Percent reduction Macrofilariae” value (Brugia pahangi [2]; [7]) was 85% and the “Percent reduction Microfilariae” value (Brugia pahangi [2]; [7]) was 55%. For the same molecule, the “Dogs cured/Treated” value (Brugia pahangi [2]; [8]) was 2/4, the “Percent reduction Macrofilariae” value (Brugia pahangi [2]; [8]) was 92% and the “Percent reduction Microfilariae” value (Brugia pahangi [2]; [8]) was 59%. For the same molecule, the “Dogs cured/Treated” value (Brugia pahangi [2]; [9]) was 4/4, the “Percent reduction Macrofilariae” value (Brugia pahangi [2]; [9]) was 100% and the “Percent reduction Microfilariae” value (Brugia pahangi [2]; IM, 50 mg/kg/day × 3, peanut oil, 50 mg/kg/day) was 100% and 99%. For the same molecule, the “cure of B. pahangi infections” value (Brugia pahangi [2]; IM, 12.5-50 mg/kg/day for 2 to 3 days) was “cured dogs of B. pahangi infections”, the “Percent reduction Macrofilariae” value (Brugia pahangi [2]; [10]) was 93% and the “Percent reduction Microfilariae” value (Brugia pahangi [2]; [10]) was 97%. For the same molecule, the “Dogs cured/Treated” value (Brugia pahangi [2]; PO, 200 mg/kg/day bid × 3, HEC-Tween 80, necropsied 6 months) was 1/3, the “Dogs cured/Treated” value (Brugia pahangi [2]; [11]) was 1/4 and the “Percent reduction Macrofilariae” value (Brugia pahangi [2]; [11]) was 76%. The “Percent reduction Microfilariae” value (Brugia pahangi [2]; [11]) was 78%, the “cure of B. pahangi infections” value (Brugia pahangi [2]; administered orally) was “also curative when administered orally” and the “% Macrofilarial reduction, B. pahangi” value (Brugia pahangi [3]; 1.56 mg/kg/day × 5 days, SC) was 16%. For the same molecule, the “% Macrofilarial reduction, B. pahangi” value (Brugia pahangi [3]; 6.25 mg/kg/day × 5 days, SC) was 92%, the “% Macrofilarial reduction, B. pahangi” value (Brugia pahangi [3]; 12.5 mg/kg/day × 5 days, SC) was 100% and the “% Macrofilarial reduction, B. pahangi” value (Brugia pahangi [3]; 25 mg/kg/day × 5 days, SC) was 100%. The “antifilarial activity in jirds” value (B. pahangi and A. viteae) was “outstanding antifilarial activity” and the solubility (Aqueous solubility) was 180 µg/mL (≈ 573 µM).
With COC(=O)Nc1nc2cc(C(N)c3ccccc3)ccc2[nH]1 (racemic) [Example 3, Methyl (±)-[5-[Amino (Phenyl)Methyl]-1H-Benzimidazol-2-yl]Carbamate] the “% Microfilarial reduction, A. viteae, Day 4” value (Acanthocheilonema viteae; 100 mg/kg/day × 5 days, oral) was 83%, the “% Microfilarial reduction, A. viteae, Day 56” value (Acanthocheilonema viteae; 100 mg/kg/day × 5 days, oral) was 83% and the “% Macrofilarial reduction, A. viteae” value (Acanthocheilonema viteae; 100 mg/kg/day × 5 days, oral) was 80%. The “% Macrofilarial reduction, B. pahangi” value (Brugia pahangi [3]; 1.56 mg/kg/day × 5 days, SC) was 23%, the “% Macrofilarial reduction, B. pahangi” value (Brugia pahangi [3]; 6.25 mg/kg/day × 5 days, SC) was 0% and the “% Macrofilarial reduction, B. pahangi” value (Brugia pahangi [3]; 25 mg/kg/day × 5 days, SC) was 75%. For the same molecule, the “% Macrofilarial reduction, B. pahangi” value (Brugia pahangi [3]; 100 mg/kg/day × 5 days, SC) was 100% and the “% Macrofilarial reduction, B. pahangi” value (Brugia pahangi [3]; 100 mg/kg/day × 5 days, oral) was 52%.
For COC(=O)Nc1nc2cc(C(N)c3ccccc3)ccc2[nH]1.Cl.Cl (racemic) [Example 4, Methyl (±)-[5-[Amino (Phenyl)Methyl]-1H-Benzimidazol-2-yl]Carbamate Dihydrochloride Salt], the “% Microfilarial reduction, A. viteae, Day 4” value (Acanthocheilonema viteae; 3.13 mg/kg/day × 5 days, SC) was 75%, the “% Microfilarial reduction, A. viteae, Day 56” value (Acanthocheilonema viteae; 3.13 mg/kg/day × 5 days, SC) was 50% and the “% Macrofilarial reduction, A. viteae” value (Acanthocheilonema viteae; 3.13 mg/kg/day × 5 days, SC) was 9%. For the same molecule, the “% Microfilarial reduction, A. viteae, Day 4” value (Acanthocheilonema viteae; 6.25 mg/kg/day × 5 days, SC) was 67%, the “% Microfilarial reduction, A. viteae, Day 56” value (Acanthocheilonema viteae; 6.25 mg/kg/day × 5 days, SC) was 67% and the “% Macrofilarial reduction, A. viteae” value (Acanthocheilonema viteae; 6.25 mg/kg/day × 5 days, SC) was 27%. The “% Microfilarial reduction, A. viteae, Day 4” value (Acanthocheilonema viteae; 12.5 mg/kg/day × 5 days, SC) was 88%, the “% Microfilarial reduction, A. viteae, Day 56” value (Acanthocheilonema viteae; 12.5 mg/kg/day × 5 days, SC) was 50% and the “% Macrofilarial reduction, A. viteae” value (Acanthocheilonema viteae; 12.5 mg/kg/day × 5 days, SC) was 31%. For the same molecule, the “% Microfilarial reduction, A. viteae, Day 4” value (Acanthocheilonema viteae; 100 mg/kg/day × 5 days, oral) was 91%, the “% Microfilarial reduction, A. viteae, Day 56” value (Acanthocheilonema viteae; 100 mg/kg/day × 5 days, oral) was 91% and the “% Macrofilarial reduction, A. viteae” value (Acanthocheilonema viteae; 100 mg/kg/day × 5 days, oral) was 81%. The “% Microfilarial reduction, A. viteae, Day 4” value (Acanthocheilonema viteae; 200 mg/kg/day × 5 days, oral) was 67%, the “% Microfilarial reduction, A. viteae, Day 56” value (Acanthocheilonema viteae; 200 mg/kg/day × 5 days, oral) was 100% and the “% Macrofilarial reduction, A. viteae” value (Acanthocheilonema viteae; 200 mg/kg/day × 5 days, oral) was 100%. The “% Macrofilarial reduction, B. pahangi” value (Brugia pahangi [3]; 3.13 mg/kg/day × 5 days, SC) was 15%, the “% Macrofilarial reduction, B. pahangi” value (Brugia pahangi [3]; 6.25 mg/kg/day × 5 days, SC) was 14% and the “% Macrofilarial reduction, B. pahangi” value (Brugia pahangi [3]; 12.5 mg/kg/day × 5 days, SC) was 18%. For the same molecule, the “% Macrofilarial reduction, B. pahangi” value (Brugia pahangi [3]; 100 mg/kg/day × 5 days, oral) was 30% and the “% Macrofilarial reduction, B. pahangi” value (Brugia pahangi [3]; 200 mg/kg/day × 5 days, oral) was 100%.
For CCN(CC)C(=O)N1CCN(C)CC1 [Diethylcarbamazine], the “activity against adult worms (macrofilaricidal)” value (adult worms) is listed as “kill adults of lymphatic filariae in some, but far from all patients” and the activity against microfilariae (microfilariae) is listed as “has the ability to destroy microfilariae”.
